According to ChEMBL document CHEMBL5244257, “The role of imidazole and benzimidazole heterocycles in Chagas disease: A review” (Eur J Med Chem, 2020):

Tests used:
[1] = tested on: Trypanosoma cruzi; experiment: Antitrypanosomal activity against Trypanosoma cruzi epimastigotes; format: functional, organism-based
[2] = tested on: Trypanosoma cruzi; experiment: Antitrypanosomal activity against Trypanosoma cruzi Tulahuen strain trypomastigotes infected in human MRC5 cells measured after 7 days; format: functional, organism-based; conditions: MRC5, 168 h
[3] = Inhibition of Trypanosoma cruzi TIM
[4] = Inhibition of Trypanosoma cruzi epimastigotes Fe-SOD by Bradford method
[5] = tested on: Trypanosoma cruzi; experiment: Antitrypanosomal activity against Trypanosoma cruzi IRHOD/CO/2008/SN3 epimastigotes; format: functional, organism-based
[6] = tested on: Trypanosoma cruzi; experiment: Antitrypanosomal activity against Trypanosoma cruzi Tulahuen 2 epimastigotes measured after 5 days; format: functional, organism-based; conditions: Tulahuen 2, 120 h
[7] = molecular target: T1, Cruzipain (Trypanosoma cruzi, UniProt P25779); experiment: Inhibition of Trypanosoma cruzi Tulahuen 2 Cruzain using Z-Phe-Arg-AMC as flurogenic substrate at 100 uM by spectrophotometry based analysis relative to control
T1 sequence (P25779 whole entry): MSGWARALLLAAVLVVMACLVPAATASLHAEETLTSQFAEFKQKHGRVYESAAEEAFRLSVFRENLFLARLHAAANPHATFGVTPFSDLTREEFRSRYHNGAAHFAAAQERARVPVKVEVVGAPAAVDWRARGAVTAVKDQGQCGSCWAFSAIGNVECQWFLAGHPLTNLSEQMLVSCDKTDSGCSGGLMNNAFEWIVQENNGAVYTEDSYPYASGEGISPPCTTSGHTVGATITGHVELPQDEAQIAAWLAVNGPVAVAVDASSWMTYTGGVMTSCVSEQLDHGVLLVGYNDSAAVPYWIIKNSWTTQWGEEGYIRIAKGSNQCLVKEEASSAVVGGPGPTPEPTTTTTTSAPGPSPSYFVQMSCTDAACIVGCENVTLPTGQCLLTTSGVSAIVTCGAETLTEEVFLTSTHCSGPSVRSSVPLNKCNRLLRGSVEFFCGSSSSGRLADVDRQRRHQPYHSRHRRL

[8] = tested on: Trypanosoma cruzi; experiment: Antitrypanosomal activity against of Trypanosoma cruzi amastigotes; format: functional, organism-based
[9] = tested on: Trypanosoma cruzi; experiment: Trypanocidal activity against Trypanosoma cruzi trypomastigotes; format: functional, organism-based
[10] = molecular target: T1, Cruzipain; experiment: Inhibition of Trypanosoma cruzi Cruzain
[11] = tested on: Trypanosoma cruzi; experiment: Antitrypanosomal activity against Trypanosoma cruzi trypomastigotes; format: functional, organism-based
[12] = tested on: Trypanosoma cruzi; experiment: Inhibition of Trypanosoma cruzi assessed as inhibition of parasite growth at 100 uM relative to control; format: functional
[13] = tested on: Trypanosoma cruzi; experiment: Antitrypanosomal activity against Trypanosoma cruzi Y strain trypomastigotes infected in Swiss albino mouse incubated for 24 hrs; format: functional, organism-based
[14] = tested on: Trypanosoma cruzi; experiment: Antitrypanosomal activity against Trypanosoma cruzi Y strain amastigotes incubated for 24 hrs by microscopy analysis; format: functional, organism-based
[15] = molecular target: T1, Cruzipain; experiment: Inhibition of Trypanosoma cruzi Cruzain using Z-Phe-Arg-AMC as flurogenic substrate
[16] = tested on: Trypanosoma cruzi; experiment: Antitrypanosomal activity against Trypanosoma cruzi Tulahuen LacZ amastigotes infected in human HFF-1 cells incubated for 120 hrs; format: functional, organism-based; conditions: HFF-1, 120 h
[17] = tested on: Trypanosoma cruzi; experiment: Inhibition of Trypanosoma cruzi TIM at 100 uM relative to control
[18] = tested on: Trypanosoma cruzi; experiment: Antiparasitic activity against Trypanosoma cruzi Tulahuen strain amastigotes; format: functional, organism-based
[19] = tested on: Trypanosoma cruzi; experiment: Antitrypanosomal activity against of Trypanosoma cruzi Tulahuen strain amastigotes infected in mouse 3T3 cells by alamar blue staining based analysis; format: functional, organism-based; conditions: NIH3T3
[20] = tested on: Trypanosoma cruzi; experiment: Antitrypanosomal activity against bloodstream form of Trypanosoma cruzi Y […] measured after 24 hrs by giemsa staining based microscopic analysis; format: functional, organism-based
[21] = tested on: Trypanosoma cruzi; experiment: Antitrypanosomal activity against of Trypanosoma cruzi Y trypomastigotes measured after 48 hrs by giemsa staining based microscopic analysis; format: functional, organism-based

For `COc1ccc(-n2c[n+](-c3ccc(OC)cc3)c(Cc3ccccc3)c2-c2ccc(C)cc2)cc1`, which IC50 [1] is on record?
Its IC50 is 440 nM.

With `c1ccc2c(c1)ccn1c[n+](C3CCCCC3)c(NC3CCCCC3)c21` as the compound, how does the IC50 [1] read?
Its IC50 is 1020 nM.

With `Cc1ccc(-c2c[nH]c(NC(=O)N3CCN(c4ccc(C(F)(F)F)cc4[N+](=O)[O-])CC3)n2)cc1` as the compound, how does the IC50 [2] read?
Its IC50 is 2200 nM.

Which IC50 [1] does the source give for `Oc1ccc(-n2c[n+](-c3ccc4ccccc4c3)c(Cc3ccccc3)c2-c2ccc(Cl)cc2)cc1` here?
Its IC50 is 540 nM.

With `Brc1ccc(-c2c[nH]c(-c3ccccn3)n2)cc1` as the compound, how does the IC50 [2] read?
The IC50 was 1200 nM.

With `CSc1nc2cc(C(=O)Nc3ncc([N+](=O)[O-])s3)c(Cl)cc2n1C` as the compound, how does the IC50 [3] read?
Its IC50 is 100000 nM.

For `Oc1cccc2c(NCCc3c[nH]cn3)nnc(Cl)c12`, which IC50 [4] is on record?
Its IC50 is 27000 nM.

And the IC50 [5]?
The IC50 was 8500 nM.

Which IC50 [6] does the source give for `CCCCn1c(-c2ccc(Br)cc2)nc2ccccc21` here?
The IC50 was 13300 nM.

What about the IC50 [7] of the same compound?
The IC50 was 55000 nM.

With `CC(C)c1cccc(C(C)C)c1-n1cc[n+](-c2c(C(C)C)cccc2C(C)C)c1` as the compound, how does the IC50 [1] read?
The IC50 was 1100 nM.

Which IC50 [8] does the source give for `CN(C)c1ccc(-c2nc(-c3ccccc3)c(-c3ccccc3)[nH]2)cc1` here?
The IC50 was 960 nM.

With `c1ccc(-c2nc(-c3cccc4ccccc34)c[nH]2)cc1` as the compound, how does the IC50 [9] read?
Its IC50 is 35500 nM.

For `Cc1ccc2[nH]c(CCNC(=O)COc3ccc4ccccc4c3Br)nc2c1`, which IC50 [10] is on record?
Its IC50 is 610 nM.

For `c1ccc2c(c1)cnn1c[n+](C3CCCCC3)c(NC3CCCCC3)c21`, which IC50 [1] is on record?
Its IC50 is 1140 nM.

With `Cn1c([N+](=O)[O-])cnc1-c1c(-c2ccccc2)nc(-c2ccc(Br)cc2)n1O` as the compound, how does the IC50 [11] read?
Its IC50 is 23900 nM.

For `CCOC(=O)c1nc2ccc([N+](=O)[O-])cc2n1OC(=O)OC(C)(C)C`, which inhibition at 100 µM [12] is on record?
The inhibition at 100 µM was 61%.

With `Cn1c([N+](=O)[O-])cnc1C1=NOC2CCCCC12` (stereo unspecified) as the compound, how does the IC50 [1] read?
The IC50 was 33000 nM.

Which IC50 [10] does the source give for `Cc1ccccc1OCC(=O)NCCc1nc2ccccc2[nH]1` here?
Its IC50 is 1600 nM.

Which IC50 [9] does the source give for `Sc1nc2cc(Cl)ccc2[nH]1` here?
Its IC50 is 320000 nM.

With `CCOC(=O)Cc1[nH]c(-c2ccccc2)nc1-c1ccc(C)cc1` as the compound, how does the IC50 [9] read?
The IC50 was 51100 nM.

For `Cn1cnc([N+](=O)[O-])c1-n1cc(C2CC2)nn1`, which IC50 [13] is on record?
Its IC50 is 5400 nM.

Which results are given for `O=C(N[C@@H](Cn1ccnc1)c1ccc(Cl)cc1Cl)c1ccc(-c2nnc(-c3ccccc3)o2)cc1`?
IC50 [11]: 11000 nM; IC50 [14]: 900 nM

Which IC50 [1] does the source give for `COc1ccc(O)c(-c2nc(C)c(C)[nH]2)c1` here?
Its IC50 is 10700 nM.

Which results are given for `Cc1cccc(OCCNC(=O)n2ccnc2)c1`?
IC50 [15]: 1000 nM; IC50 [16]: 1100 nM

With `Cn1c(OC(N)=O)nc2cc(Oc3cccc4ccccc34)c(Cl)cc21` as the compound, how does the inhibition [17] read?
Its inhibition is 60%.

Which IC50 [18] does the source give for `O=C(N[C@@H](Cn1ccnc1)c1ccc(-c2ccc(F)cc2)cc1F)c1ccc(-c2nnc(-c3ccccc3)o2)cc1` here?
The IC50 was 0.8 nM.

For `Cc1ccc(OCCn2c(CCNC(=O)C3CCCCC3)nc3ccccc32)cc1`, which IC50 [1] is on record?
The IC50 was 64000 nM.

And the IC50 [10]?
Its IC50 is 2000 nM.

For `O=C(COc1ccc2ccccc2c1Br)NCCc1nc2cc(Cl)ccc2[nH]1`, which IC50 [10] is on record?
The IC50 was 590 nM.

With `Cc1cc(C)c(-n2cc[n+](-c3c(C)cc(C)cc3C)c2)c(C)c1` as the compound, how does the IC50 [1] read?
The IC50 was 2000 nM.

For `c1ccc(-c2ccc(Cn3cncc3CNc3ccc(-c4nc5ccccc5s4)c(-c4ccccc4)c3)cc2)cc1`, which IC50 [19] is on record?
Its IC50 is 20 nM.

Which IC50 [20] does the source give for `C=C(c1ccccc1OCc1cccc(Cl)c1)n1ccnc1` [CROCONAZOLE] here?
The IC50 was 24000 nM.

What about the IC50 [21] of the same compound?
Its IC50 is 16000 nM.
